Where two headings read alike, the source gives them in different places.
Molecular target: T1, Sphingosine-1-phosphate receptor 1 (S1P1) (Mus musculus, UniProt O08530)
T1 construct: gene S1pr1; mouse S1pr1 coding region with C terminus linked to C-terminal firefly luciferase fragment (amino acids #394–550), S1P1–CLuc; with NLuc–β-arrestin2
Assay: split luciferase β-arrestin2 recruitment (bioluminescence) in knock-in mouse embryonic fibroblasts
Assay type: cell-based

T1 sequence (O08530 2-382): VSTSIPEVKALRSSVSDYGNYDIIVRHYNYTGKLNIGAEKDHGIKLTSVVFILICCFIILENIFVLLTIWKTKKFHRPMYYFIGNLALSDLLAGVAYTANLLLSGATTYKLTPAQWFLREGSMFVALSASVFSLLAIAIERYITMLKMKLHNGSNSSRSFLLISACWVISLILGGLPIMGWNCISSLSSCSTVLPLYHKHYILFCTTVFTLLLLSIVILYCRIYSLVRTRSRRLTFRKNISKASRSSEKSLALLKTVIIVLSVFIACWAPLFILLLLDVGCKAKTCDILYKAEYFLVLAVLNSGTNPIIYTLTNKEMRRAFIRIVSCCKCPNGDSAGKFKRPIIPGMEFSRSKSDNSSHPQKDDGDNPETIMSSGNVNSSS
T1 sequence (Q91YI4 whole entry partner, the tested form may be a part): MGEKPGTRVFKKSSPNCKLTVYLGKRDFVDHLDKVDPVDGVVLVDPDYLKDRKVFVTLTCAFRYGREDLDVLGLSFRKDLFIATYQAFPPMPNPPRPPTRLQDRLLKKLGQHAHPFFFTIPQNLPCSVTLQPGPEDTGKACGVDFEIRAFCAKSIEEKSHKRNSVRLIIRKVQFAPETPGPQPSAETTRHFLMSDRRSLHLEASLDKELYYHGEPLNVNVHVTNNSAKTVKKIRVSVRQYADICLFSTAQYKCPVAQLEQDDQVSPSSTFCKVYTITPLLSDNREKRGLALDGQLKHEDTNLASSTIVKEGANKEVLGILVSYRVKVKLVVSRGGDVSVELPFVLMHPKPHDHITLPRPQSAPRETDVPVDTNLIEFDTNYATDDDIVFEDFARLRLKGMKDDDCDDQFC

| Structure (SMILES) | EC50 (read-out: EC50) [nM] | EC50 [nM] |
| --- | --- | --- |
| CCCCCCCCCCCCC/C=C/[C@@H](O)[C@@H](N)COP(=O)(O)O [S1P] | 19.4 ± 0.8 | – |
| CCCCCCCCCCCCCCC[C@@H](O)[C@@H](N)COP(=O)(O)O [dihydro-S1P] | – | 32.4 ± 0.5 |
